Target: T1, KRAS G12C 1-169, his-tagged protein, GDP-loaded (Homo sapiens, UniProt P01116, G12C)
T1 construct: KRAS G12C 1-169, his-tagged protein, GDP-loaded; His tag
Assay: Biochemical assay: covalent modification of KRAS G12C, analysed by mass spectrometry (RapidFire/TOF or Q-Exactive)
Type: binding
Conditions: Modification activity, modification percentage from MS peak intensities
Experimental: Test compounds are prepared as 10 mM stock solutions in DMSO (Fisher cat. #BP-231-100). KRAS G12C 1-169, his-tagged protein, GDP-loaded is diluted to 2 μM or 0.5 μM in buffer (20 mM Hepes, 150 mM NaCl, 1 mM MgCl2). Compounds are tested for activity as follows:
Compounds are diluted to 50× final test concentration in DMSO in 96-well storage plates. Compound stock solutions are vortexed before use and observed carefully for any sign of precipitation. Dilutions are as follow: • For 32 μM final compound concentration, compounds are diluted to 1600 μM (3 μL 10 mM compound stock+15.75 μL DMSO and mixed well by pipetting. • For 8 μM final compound concentration, compounds are diluted to 400 μM (2 μL 10 mM compound stock+48 μL DMSO) and mixed well by pipetting. 49 μL of the stock protein solution is added to each well of a 96-well PCR plate (Fisher cat #1423027). 1 μl of the diluted 50× compounds are added to appropriate wells in the PCR plate using 12-channel pipettor. Reactions are mixed carefully and thoroughly by pipetting up/down with a 200 μL multi-channel pipettor. The plate is sealed well with aluminum plate seal, and protein and compound are allowed to react for a desired amount of time. 5 μL of 2% formic acid (Fisher cat #A117) in de-ionized H2O is then added to each well followed by mixing with a pipette to quench the reaction. The plate is then resealed with aluminum seal and stored frozen on dry ice until analyzed as described below.
The above described assays are analyzed by mass spectrometry according to one of the following two procedures:
The MS instrument is set to positive polarity, 2 GHz resolution, and low mass (1700) mode and allowed to equilibrate for 30 minutes. The instrument is then calibrated, switched to acquisition mode and the appropriate method loaded.
After another 30 minute equilibration time, a blank batch (i.e., buffer) is run to ensure equipment is operating properly. The samples are thawed at 37° C. for 10 minutes, briefly centrifuged, and transfer to the bench top. Wells A1 and H12 are spiked with 1 μL 500 μM internal standard peptide, and the plates centrifuged at 2000×g for 5 minutes. The method is then run and masses of each individual well recorded.
The masses (for which integration data is desired) for each well are pasted into the platemap and exported from the analysis. Masses for the internal standards are exported as well. The data at 50 ppm is extracted for the +19 charge state, and identity of well A1 is assigned using the internal standard spike and integrated. Peak data is exported as a TOF list and the above steps are repeated individually, for the +20, +21, +22, +23, +24, and +25 charge states.
The masses and peak intensities of KRAS G12C protein species are measured using a Dionex RSLCnano system (Thermo Scientific) connected to a Q Exactive Plus mass spectrometer (Thermo Scientific).
20 μL of sample is each loaded onto a Aeris™ 3.6 μm WIDEPORE C4 200 Å, LC Column 50×2.1 mm column maintained at 40° C. at a flow rate of 600 μL/min with 80% Solvent A (0.1% formic acid in H2O) and 20% Solvent B (0.1% formic acid in acetonitrile). The liquid chromatography conditions are 20% solvent B for 1 minute, 20% to 60% solvent B for 1.5 minutes, 60% to 90% solvent for 0.5 minute, 90% solvent B for 0.2 minute, 90% to 20% solvent B for 0.2 minute, and then equilibrated for 1.6 minute before the following sample injection. The flow rate is maintained at 600 μL/min throughout the sample analysis.
The mass spectrometer is operated in profile mode at a resolution of 17500, 5 microscans, using 50 msec max injection time and an AGC target of 1×10^6, and a full mass range from 800-1850 m/z is recorded. The intact protein mode is applied for optimal ion transfer and maximum sensitivity. The ionization method is electrospray ionization, which used a spray voltage of 4 kV, sheath gas flow set to 50 AU, auxiliary gas flow set to 10 AU and sweep gas flow set to 1 AU. […]

Compound | Binding %
C=CC(=O)N1CC2(CCN(c3nc(N4CCOCC4)nc(-c4c(C)ccc5[nH]ncc45)c3C#N)C2)C1 [Compound I-76, 4-(2-acryloyl-2,6-diazaspiro[3.4]octan-6-yl)-6-(5-methyl-1H-indazol-4-yl)-2-morpholinopyrimidine-5-carbonitrile] | ++ (++ indicates binding activity from 50 to 85%)
C=CC(=O)N1CC2(CCN(c3nc(N4CCOCC4)nc(-c4c(C)ccc5cnn(C6CC6)c45)c3C#N)C2)C1 [Compound I-97, 4-(2-acryloyl-2,6-diazaspiro[3.4]octan-6-yl)-6-(1-cyclopropyl-6-methyl-1H-indazol-7-yl)-2-morpholinopyrimidine-5-carbonitrile] | + (+ indicates binding activity greater than 0% and up to 50%)
C=CC(=O)N1CC2(CCN(c3nc(N4CCC(N5CCN(C)C6(CC6)C5)CC4)nc(-c4c(C)ccc5cnn(C)c45)c3C#N)C2)C1 [Compound I-197, 4-(2-acryloyl-2,6-diazaspiro[3.4]octan-6-yl)-6-(1,6-dimethyl-1H-indazol-7-yl)-2-(4-(4-methyl-4,7-diazaspiro[2.5]octan-7-yl)piperidin-1-yl)pyrimidine-5-carbonitrile] | +++ (+++ indicates binding activity greater than 85%)
C=CC(=O)N1CC2(CCN(c3nc(OCCc4ccccn4)nc(-c4c(C)ccc5[nH]ncc45)c3C#N)CC2)C1 [Compound I-75, 4-(2-acryloyl-2,7-diazaspiro[3.5]nonan-7-yl)-6-(5-methyl-1H-indazol-4-yl)-2-(2-(pyridin-2-yl)ethoxy)pyrimidine-5-carbonitrile] | ++ (++ indicates binding activity from 50 to 85%)
C=CC(=O)N1CC2(CCN(c3nc(N4CCOCC4)nc(-c4c(C)ccc5[nH]nc(C)c45)c3C#N)C2)C1 [Compound I-96, 4-(2-acryloyl-2,6-diazaspiro[3.4]octan-6-yl)-6-(3,5-dimethyl-1H-indazol-4-yl)-2-morpholinopyrimidine-5-carbonitrile] | +++ (+++ indicates binding activity greater than 85%)
C=CC(=O)N1CC2(CCN(c3nc(OC[C@@H]4CN(C)CCO4)nc(-c4c(C)ccc5[nH]ncc45)c3C#N)C2)C1 [Compound I-91, 4-(2-acryloyl-2,6-diazaspiro[3.4]octan-6-yl)-6-(5-methyl-1H-indazol-4-yl)-2-(((S)-4-methylmorpholin-2-yl)methoxy)pyrimidine-5-carbonitrile] | ++ (++ indicates binding activity from 50 to 85%)
C=CC(=O)N1CC2(CCN(c3nc(OC[C@@H]4CCCN4C)nc(-c4cccc5ccccc45)c3C#N)C2)C1 [Compound I-101, (S)-4-(2-acryloyl-2,6-diazaspiro[3.4]octan-6-yl)-2-((1-methylpyrrolidin-2-yl)methoxy)-6-(naphthalen-1-yl)pyrimidine-5-carbonitrile] | + (+ indicates binding activity greater than 0% and up to 50%)
C=CC(=O)N1CC2(CCN(c3nc(OC[C@H]4CCN(C)C4)nc(-c4c(C)ccc5[nH]ncc45)c3C#N)C2)C1 [Compound I-116, 4-(2-acryloyl-2,6-diazaspiro[3.4]octan-6-yl)-6-(5-methyl-1H-indazol-4-yl)-2-(((S)-1-methylpyrrolidin-3-yl)methoxy)pyrimidine-5-carbonitrile] | ++ (++ indicates binding activity from 50 to 85%)
C=CC(=O)N1CC2(CCN(c3nc(OCCCN(C)C)cc(-c4c(C)ccc5[nH]ncc45)n3)C2)C1 [Compound I-146, 1-(6-(4-(3-(dimethylamino)pro-poxy)-6-(5-methyl-1H-indazol-4-yl)pyrimidin-2-yl)-2,6-diazaspiro[3.4]octan-2-yl)prop-2-en-1-one] | + (+ indicates binding activity greater than 0% and up to 50%)
C=CC(=O)N1CC2(CCN(c3ncnc(N4CCC[C@@H]4C(N)=O)c3C#N)C2)C1 [Compound I-247, (R)-1-(6-(2-acryloyl-2,6-diazaspiro[3.4]octan-6-yl)-5-cyanopyrimidin-4-yl)pyrrolidine-2-carboxamide] | + (+ indicates binding activity greater than 0% and up to 50%)
C=CC(=O)N1CC2(CCN(c3nc(N4CCOC(c5ccccc5)C4)nc(-c4c(C)ccc5[nH]ncc45)c3C#N)C2)C1 (stereo not shown) [Compound I-109, 4-(2-acryloyl-2,6-diazaspiro[3.4]octan-6-yl)-6-(5-methyl-1H-indazol-4-yl)-2-(2-phenylmorpholino)py-rimidine-5-carbonitrile] | ++ (++ indicates binding activity from 50 to 85%)
C=CC(=O)N1CC2(CCN(c3nc(C(N)=O)nc(-c4c(C)ccc5[nH]ncc45)c3C#N)C2)C1 [Compound I-202, 4-(2-acryloyl-2,6-diazaspiro[3.4]octan-6-yl)-5-cyano-6-(5-methyl-1H-indazol-4-yl)pyrimidine-2-carboxamide] | + (+ indicates binding activity greater than 0% and up to 50%)
C=CC(=O)N1CC2(CCN(c3nc(OC[C@@H]4CCCN4C)cc(-c4c(C)ccc5[nH]ncc45)n3)C2)C1 [Compound I-148, (S)-1-(6-(4-(5-methyl-1H-indazol-4-yl)-6-((1-methylpyrrolidin-2-yl)methoxy)pyrimidin-2-yl)-2,6-diazaspiro[3.4]octan-2-yl)prop-2-en-1-one] | + (+ indicates binding activity greater than 0% and up to 50%)
C/C=C/C(=O)N1CC2(CCN(c3nc(N4CCOCC4)nc(-c4c(C)ccc5[nH]ncc45)c3C#N)C2)C1 [Compound I-83, (E)-4-(2-(but-2-enoyl)-2,6-diazaspiro[3.4]octan-6-yl)-6-(5-methyl-1H-indazol-4-yl)-2-morpholinopyrimidine-5-carbonitrile] | + (+ indicates binding activity greater than 0% and up to 50%)
C=CC(=O)N1CC2(CCN(c3nc(OC[C@@H]4CCCN4C)nc(-c4cc(C(N)=O)ccc4F)c3C#N)C2)C1 [Compound I-94, (S)-3-(6-(2-acryloyl-2,6-diazaspiro[3.4]octan-6-yl)-5-cyano-2-((1-methylpyrrolidin-2-yl)methoxy)pyrimidin-4-yl)-4-fluorobenzamide] | + (+ indicates binding activity greater than 0% and up to 50%)
C=CC(=O)N1CC2(CCN(c3ncnc(Oc4ccccc4C(N)=O)c3C#N)C2)C1 [Compound I-244, 2-((6-(2-acryloyl-2,6-diazaspiro[3.4]octan-6-yl)-5-cyanopyrimidin-4-yl)oxy)benzamide] | + (+ indicates binding activity greater than 0% and up to 50%)
C=CC(=O)N1CC2(CCN(c3nc(OC[C@@H]4CCCN4C)nc(-c4ccnc(N)n4)c3C#N)C2)C1 [Compound I-167, (S)-6-(2-acryloyl-2,6-diazaspiro[3.4]octan-6-yl)-2′-amino-2-((1-methylpyrrolidin-2-yl)methoxy)-[4,4′-bipyrimidine]-5-carbonitrile] | + (+ indicates binding activity greater than 0% and up to 50%)
C=CC(=O)N1CC2(CCN(c3nc(OC[C@@H]4CCCN4C)nc(-c4c(F)cccc4C(N)=O)c3C#N)C2)C1 [Compound I-45, 2-(6-(2-acryloyl-2,6-diazaspiro[3.4]octan-6-yl)-5-cyano-2-(((S)-1-methylpyrrolidin-2-yl)methoxy)pyrimidin-4-yl)-3-fluorobenzamide] | + (+ indicates binding activity greater than 0% and up to 50%)
C=CC(=O)N1CC2(CCN(c3nc(N4CCOCC4)nc(-c4cc(O)cc5ccccc45)c3C#N)C2)C1 [Compound I-80, 4-(2-acryloyl-2,6-diazaspiro[3.4]octan-6-yl)-6-(3-hydroxynaphthalen-1-yl)-2-morpholinopyrimidine-5-carbonitrile] | +++ (+++ indicates binding activity greater than 85%)

Reference: patent US12134620B2 (ARAXES PHARMA LLC, priority 2018, dated 2024)
